# Read-outs that look alike come from different tables or passages of the source.
# How the values were obtained:
# [1] = system: T. gondii RH strain (RH-Tub-eYFP) tachyzoites; experiment: microbe, parasite or virus in culture; assay type: cell-based, Toxoplasma gondii; settings: for percent parasite growth at 2 µg/mL: Toxoplasma gondii
# [2] = system: P. falciparum 3D7 parasites; experiment: P. falciparum growth inhibition assay, 1-cycle (72 h treatment), SYBR DNA staining (library screen at 2 μg/mL and dose-response); assay type: cell-based, Plasmodium falciparum; settings: for activity at 2 µg/mL: Plasmodium falciparum, 3D7, P. falciparum
# [3] = system: P. falciparum 3D7 parasites; experiment: P. falciparum growth inhibition assay, 2-cycle (120 h treatment), delayed-death screen and dose-response; assay type: cell-based, Plasmodium falciparum; settings: for activity at 2 µg/mL: Plasmodium falciparum, 3D7, P. falciparum
# [4] = library screen at 2 μg/mL, 72 h, % growth, replicate 1
# [5] = library screen at 2 μg/mL, 72 h, % growth, replicate 2
# [6] = T. gondii, 72 h, parasite screen at 2 μg/mL, % growth, replicate 1
# [7] = T. gondii, 72 h, parasite screen at 2 μg/mL, % growth, replicate 2
# [8] = P. falciparum 3D7, 72 h, parasite screen at 2 μg/mL, % growth, replicate 1
# [9] = P. falciparum 3D7, 72 h, parasite screen at 2 μg/mL, % growth, replicate 2
# [10] = P. falciparum 3D7, 120 h, parasite screen at 2 μg/mL, % growth, replicate 1
# [11] = P. falciparum 3D7, 120 h, parasite screen at 2 μg/mL, % growth, replicate 2
# [12] = 72 h, screen at 2 μg/mL, replicate 1, read-out: Pf_72h_%Growth_Rep1
# [13] = 72 h, screen at 2 μg/mL, replicate 2, read-out: Pf_72h_%Growth_Rep2
# [14] = 120 h, screen at 2 μg/mL, replicate 1, read-out: Pf_120h_%Growth_Rep1
# [15] = 120 h, screen at 2 μg/mL, replicate 2, read-out: Pf_120h_%Growth_Rep2
molecule,measurement,setting,value
Aflatoxin B1,Tg_72h_%Growth_Rep1,[1],27.47%
same,Tg_72h_%Growth_Rep2,[1],33.32%
same,Pf_72h_%Growth_Rep1,[2],79.06%
same,Pf_72h_%Growth_Rep2,[2],85.00%
same,Pf_120h_%Growth_Rep1,[3],89.63%
same,Pf_120h_%Growth_Rep2,[3],84.39%
CC(C)C[C@H]1C(=O)O[C@H](C(C)C)C(=O)N(C)[C@@H](CC(C)C)C(=O)O[C@H](C(C)C)C(=O)N(C)[C@@H](CC(C)C)C(=O)O[C@H](C(C)C)C(=O)N(C)[C@@H](CC(C)C)C(=O)O[C@H](C(C)C)C(=O)N1C [Bassianolide],Tg_72h_%Growth_Rep1,[1]; [4],78.43%
same,Tg_72h_%Growth_Rep2,[1]; [5],93.64%
same,Pf_72h_%Growth_Rep1,[2]; [4],6.97%
same,Pf_72h_%Growth_Rep2,[2]; [5],5.23%
same,Pf_120h_%Growth_Rep1,"[3]; library screen at 2 μg/mL, 120 h, % growth, replicate 1",10.85%
same,Pf_120h_%Growth_Rep2,"[3]; library screen at 2 μg/mL, 120 h, % growth, replicate 2",-3.01%
CCC1OC2(CCC1C)CC1CC(CC=C(C)CC(C)C=CC=C3COC4C(O)C(C)=CC(C(=O)O1)C34O)O2 (stereo not drawn) [BIA-M1052],Tg_72h_%Growth_Rep1,[1]; [6],117.80%
same,Tg_72h_%Growth_Rep2,[1]; [7],80.70%
same,Pf_72h_%Growth_Rep1,[2]; [8],59.66%
same,Pf_72h_%Growth_Rep2,[2]; [9],59.04%
same,Pf_120h_%Growth_Rep1,[3]; [10],32.48%
same,Pf_120h_%Growth_Rep2,[3]; [11],50.00%
C[C@H]1[C@H](C)CC[C@]2(C(=O)O)CC[C@]3(C)C(=CC[C@@H]4[C@@]5(C)CC[C@H](O)C(C)(C)[C@@H]5CC[C@]43C)[C@H]12 [Ursolic acid],percent parasite growth at 2 µg/mL,"[1]; 72 h, read-out: Tg_72h_%Growth_Rep1",96%
same,percent parasite growth at 2 µg/mL,"[1]; 72 h, read-out: Tg_72h_%Growth_Rep2",92.8%
same,activity at 2 µg/mL,[2]; [12],77.7%
same,activity at 2 µg/mL,[2]; [13],84%
same,activity at 2 µg/mL,[3]; [14],155%
same,activity at 2 µg/mL,[3]; [15],79.7%
CC=CC(C)=CC(C)C(=O)CC(O)CC1CC(=O)NC(=O)C1 (stereo not drawn) [BIA-M1404],Tg_72h_%Growth_Rep1,[1]; [6],4.29%
same,Tg_72h_%Growth_Rep2,[1]; [7],7.26%
same,Pf_72h_%Growth_Rep1,[2]; [8],71.61%
same,Pf_72h_%Growth_Rep2,[2]; [9],88.22%
same,Pf_120h_%Growth_Rep1,[3]; [10],85.21%
same,Pf_120h_%Growth_Rep2,[3]; [11],78.18%
Cc1cc(O)c2c(c1)O[C@@]1(C)CC[C@H]3C(C)(C)CCC[C@]34CO[C@@H]2[C@H]41 [Siccanin],percent parasite growth at 2 µg/mL,"[1]; 72 h, T. gondii, 72 h, parasite screen 2 μg/mL, % growth, replicate 1, read-out: Tg_72h_%Growth_Rep1",99.3%
same,percent parasite growth at 2 µg/mL,"[1]; 72 h, T. gondii, 72 h, parasite screen 2 μg/mL, % growth, replicate 2, read-out: Tg_72h_%Growth_Rep2",83.6%
same,activity at 2 µg/mL,"[2]; 72 h, parasite screen 2 μg/mL, % growth, replicate 1, read-out: Pf_72h_%Growth_Rep1",76%
same,activity at 2 µg/mL,"[2]; 72 h, parasite screen 2 μg/mL, % growth, replicate 2, read-out: Pf_72h_%Growth_Rep2",49.5%
same,activity at 2 µg/mL,"[3]; 120 h, parasite screen 2 μg/mL, % growth, replicate 1, read-out: Pf_120h_%Growth_Rep1",73%
same,activity at 2 µg/mL,"[3]; 120 h, parasite screen 2 μg/mL, % growth, replicate 2, read-out: Pf_120h_%Growth_Rep2",114%
CCCC(=O)OC1C(C)OC(OC2C(C)OC(OC3C(CC=O)CC(C)C(O)C=CC=CCC(C)OC(=O)CC(OC(C)=O)C3OC)C(O)C2N(C)C)CC1(C)O (stereo not drawn) [BIA-L1364],Tg_72h_%Growth_Rep1,"[1]; T. gondii RH, 72 h, library screen at 2 μg/mL, % growth, replicate 1",19.43%
same,Tg_72h_%Growth_Rep2,"[1]; T. gondii RH, 72 h, library screen at 2 μg/mL, % growth, replicate 2",27.43%
same,Pf_72h_%Growth_Rep1,"[2]; P. falciparum 3D7, 72 h, library screen at 2 μg/mL, % growth, replicate 1",50.48%
same,Pf_72h_%Growth_Rep2,"[2]; P. falciparum 3D7, 72 h, library screen at 2 μg/mL, % growth, replicate 2",43.27%
same,Pf_120h_%Growth_Rep1,"[3]; P. falciparum 3D7, 120 h, library screen at 2 μg/mL, % growth, replicate 1",4.30%
same,Pf_120h_%Growth_Rep2,"[3]; P. falciparum 3D7, 120 h, library screen at 2 μg/mL, % growth, replicate 2",-1.28%
CCCCCCC(=O)CCCCCC/C=C/C[C@@H](O)[C@H](O)[C@@](N)(CO)C(=O)O [BIA-M1219],Tg_72h_%Growth_Rep1,[1]; [6],113.89%
same,Tg_72h_%Growth_Rep2,[1]; [7],86.95%
same,Pf_72h_%Growth_Rep1,[2]; [8],77.20%
same,Pf_72h_%Growth_Rep2,[2]; [9],44.93%
same,Pf_120h_%Growth_Rep1,[3]; [10],68.80%
same,Pf_120h_%Growth_Rep2,[3]; [11],36.84%
COc1cc(-c2ccc(O)cc2)c(OC)c(O)c1-c1ccc(O)cc1 [Terphenyllin],percent parasite growth at 2 µg/mL,"[1]; 72 h, T. gondii, 72 h, screen at 2 μg/mL, replicate 1, read-out: Tg_72h_%Growth_Rep1",84.9%
same,percent parasite growth at 2 µg/mL,"[1]; 72 h, T. gondii, 72 h, screen at 2 μg/mL, replicate 2, read-out: Tg_72h_%Growth_Rep2",103%
same,activity at 2 µg/mL,[2]; [12],87.2%
same,activity at 2 µg/mL,[2]; [13],91.8%
same,activity at 2 µg/mL,[3]; [14],179%
same,activity at 2 µg/mL,[3]; [15],102%

# Source: publication PMC12396409, “Screening and hit evaluation of a microbial metabolite library against the pathogenic Plasmodium falciparum and Toxoplasma gondii parasites” (International Journal for Parasitology: Drugs and Drug …, 2025)
